According to patent US20260226493A1, “HERBICIDE RESISTANT PLANTS” (SYNGENTA CROP PROTECTION AG, priority 2023, published 2026):

Experiments:
Assay in all cases: BIO3-BIO1 mutant enzyme activity in the presence of herbicide, percentage inhibition (fluorometric DAPA assay)
Type in all cases: biochemical
Details in all cases: read-out: percentage inhibition
[1] = target: T1, Arabidopsis thaliana BIO3-BIO1 (BioDA) mutants (Arabidopsis thaliana, UniProt B0F481, P510V)
T1 construct: with the predicted N-terminal mitochondrial transit peptide removed; 6xHis-tag (N); thrombin cleavage site (N); made in house; host or cells: E. coli BL21 (DE3) bioA
T1 sequence (B0F481 23-833 P510V): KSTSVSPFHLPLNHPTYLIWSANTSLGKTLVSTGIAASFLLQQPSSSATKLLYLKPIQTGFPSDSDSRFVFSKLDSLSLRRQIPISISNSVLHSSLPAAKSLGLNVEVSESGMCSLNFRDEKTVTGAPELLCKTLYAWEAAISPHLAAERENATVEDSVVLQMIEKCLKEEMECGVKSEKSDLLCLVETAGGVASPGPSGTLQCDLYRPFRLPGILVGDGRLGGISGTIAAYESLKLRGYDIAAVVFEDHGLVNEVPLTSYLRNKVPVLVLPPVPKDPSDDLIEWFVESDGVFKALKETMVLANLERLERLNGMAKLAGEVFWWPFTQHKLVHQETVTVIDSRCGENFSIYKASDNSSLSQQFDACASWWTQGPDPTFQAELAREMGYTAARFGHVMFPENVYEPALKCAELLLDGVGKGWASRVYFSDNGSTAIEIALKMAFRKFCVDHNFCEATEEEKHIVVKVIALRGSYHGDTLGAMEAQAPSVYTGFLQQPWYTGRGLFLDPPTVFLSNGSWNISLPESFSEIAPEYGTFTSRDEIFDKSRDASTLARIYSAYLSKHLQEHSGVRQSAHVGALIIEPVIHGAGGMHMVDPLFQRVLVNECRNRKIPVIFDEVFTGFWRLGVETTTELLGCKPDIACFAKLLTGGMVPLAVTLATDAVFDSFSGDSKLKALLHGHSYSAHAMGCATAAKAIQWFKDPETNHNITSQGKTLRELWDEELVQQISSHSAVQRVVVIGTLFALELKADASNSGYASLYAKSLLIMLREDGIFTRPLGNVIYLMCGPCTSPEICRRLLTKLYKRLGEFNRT
In short: (§1)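 Percentage inhibition compares activity at one of three herbicide concentrations against DMSO, from o-phthalaldehyde-derivatised DAPA fluorescence (ex 410, em 470 nm). Purified N-His BIO3-BIO1 variants (50 nM, E. coli-expressed) saw herbicide 10 min at 20 °C in pH 8.6 EPPS buffer, then 20 μM KAPA plus 100 μM spermidine for 75 min at 20 °C.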

[2] = target: T2, Arabidopsis thaliana BIO3-BIO1 (BioDA) mutants (Arabidopsis thaliana, UniProt B0F481, F420I)
T2 construct: with the predicted N-terminal mitochondrial transit peptide removed; 6xHis-tag (N); thrombin cleavage site (N); made in house; host or cells: E. coli BL21 (DE3) bioA
T2 sequence (B0F481 23-833 F420I): as the sequence (B0F481 23-833 P510V) above, with F398I, V488P counted along it
In short: as §1

[3] = target: T3, Arabidopsis thaliana BIO3-BIO1 (BioDA) mutants (Arabidopsis thaliana, UniProt B0F481, G513A)
T3 construct: with the predicted N-terminal mitochondrial transit peptide removed; 6xHis-tag (N); thrombin cleavage site (N); made in house; host or cells: E. coli BL21 (DE3) bioA
T3 sequence (B0F481 23-833 G513A): as the sequence (B0F481 23-833 P510V) above, with V488P, G491A counted along it
In short: as §1

[4] = target: T4, Arabidopsis thaliana BIO3-BIO1 (BioDA) mutants (Arabidopsis thaliana, UniProt B0F481, A609Y)
T4 construct: with the predicted N-terminal mitochondrial transit peptide removed; 6xHis-tag (N); thrombin cleavage site (N); made in house; host or cells: E. coli BL21 (DE3) bioA
T4 sequence (B0F481 23-833 A609Y): as the sequence (B0F481 23-833 P510V) above, with V488P, A587Y counted along it
In short: as §1

[5] = target: T5, Arabidopsis thaliana BIO3-BIO1 (BioDA) mutants (Arabidopsis thaliana, UniProt B0F481, Q350S)
T5 construct: with the predicted N-terminal mitochondrial transit peptide removed; 6xHis-tag (N); thrombin cleavage site (N); made in house; host or cells: E. coli BL21 (DE3) bioA
T5 sequence (B0F481 23-833 Q350S): as the sequence (B0F481 23-833 P510V) above, with Q328S, V488P counted along it
In short: as §1

[6] = target: T6, Arabidopsis thaliana BIO3-BIO1 (BioDA) mutants (Arabidopsis thaliana, UniProt B0F481, F348A)
T6 construct: with the predicted N-terminal mitochondrial transit peptide removed; 6xHis-tag (N); thrombin cleavage site (N); made in house; host or cells: E. coli BL21 (DE3) bioA
T6 sequence (B0F481 23-833 F348A): as the sequence (B0F481 23-833 P510V) above, with F326A, V488P counted along it
In short: as §1

[7] = target: T7, Arabidopsis thaliana BIO3-BIO1 (BioDA) mutants (Arabidopsis thaliana, UniProt B0F481, W392S)
T7 construct: with the predicted N-terminal mitochondrial transit peptide removed; 6xHis-tag (N); thrombin cleavage site (N); made in house; host or cells: E. coli BL21 (DE3) bioA
T7 sequence (B0F481 23-833 W392S): as the sequence (B0F481 23-833 P510V) above, with W370S, V488P counted along it
In short: as §1

[8] = target: T8, Arabidopsis thaliana BIO3-BIO1 (BioDA) mutants (Arabidopsis thaliana, UniProt B0F481, T512N)
T8 construct: with the predicted N-terminal mitochondrial transit peptide removed; 6xHis-tag (N); thrombin cleavage site (N); made in house; host or cells: E. coli BL21 (DE3) bioA
T8 sequence (B0F481 23-833 T512N): as the sequence (B0F481 23-833 P510V) above, with V488P, T490N counted along it
In short: as §1

[9] = target: T9, Arabidopsis thaliana BIO3-BIO1 (BioDA) mutants (Arabidopsis thaliana, UniProt B0F481, W392M)
T9 construct: with the predicted N-terminal mitochondrial transit peptide removed; 6xHis-tag (N); thrombin cleavage site (N); made in house; host or cells: E. coli BL21 (DE3) bioA
T9 sequence (B0F481 23-833 W392M): as the sequence (B0F481 23-833 P510V) above, with W370M, V488P counted along it
In short: as §1

[10] = target: T10, Arabidopsis thaliana BIO3-BIO1 (BioDA) mutants (Arabidopsis thaliana, UniProt B0F481, Y511I)
T10 construct: with the predicted N-terminal mitochondrial transit peptide removed; 6xHis-tag (N); thrombin cleavage site (N); made in house; host or cells: E. coli BL21 (DE3) bioA
T10 sequence (B0F481 23-833 Y511I): as the sequence (B0F481 23-833 P510V) above, with V488P, Y489I counted along it
In short: as §1

[11] = target: T11, Arabidopsis thaliana BIO3-BIO1 (BioDA) mutants (Arabidopsis thaliana, UniProt B0F481, T512V)
T11 construct: with the predicted N-terminal mitochondrial transit peptide removed; 6xHis-tag (N); thrombin cleavage site (N); made in house; host or cells: E. coli BL21 (DE3) bioA
T11 sequence (B0F481 23-833 T512V): as the sequence (B0F481 23-833 P510V) above, with V488P, T490V counted along it
In short: as §1

[12] = target: T12, Arabidopsis thaliana BIO3-BIO1 (BioDA) mutants (Arabidopsis thaliana, UniProt B0F481, W391M)
T12 construct: with the predicted N-terminal mitochondrial transit peptide removed; 6xHis-tag (N); thrombin cleavage site (N); made in house; host or cells: E. coli BL21 (DE3) bioA
T12 sequence (B0F481 23-833 W391M): as the sequence (B0F481 23-833 P510V) above, with W369M, V488P counted along it
In short: as §1

SMILES | inhibition at 1 µM [1] [%] | inhibition at 1 µM [7] [%] | inhibition at 1 µM [8] [%] | inhibition at 1 µM [2] [%] | inhibition at 1 µM [3] [%] | inhibition at 1 µM [4] [%] | inhibition at 1 µM [9] [%] | inhibition at 1 µM [10] [%] | inhibition at 1 µM [5] [%] | inhibition at 1 µM [11] [%] | inhibition at 1 µM [6] [%] | inhibition at 1 µM [12] [%] | inhibition at 0.2 µM [1] [%] | inhibition at 5 µM [1] [%] | inhibition at 0.2 µM [7] [%] | inhibition at 5 µM [7] [%] | inhibition at 0.2 µM [8] [%] | inhibition at 5 µM [8] [%] | inhibition at 0.2 µM [2] [%] | inhibition at 5 µM [2] [%] | further results
CCn1c(Cn2ccc(C(F)(F)F)n2)cc(=O)c(C(=O)O)c1-c1ccc(Cl)c(Cl)c1 [Compound L, 2-(3,4-dichlorophenyl)-1-ethyl-4-oxo-6-[[3-(trifluoromethyl)pyrazol-1-yl]methyl]pyridine-3-carboxylic acid] |  |  |  |  |  |  |  |  |  |  |  |  |  |  |  |  |  |  |  |  | inhibition at 0.01 µM [1]: 0%; inhibition at 0.075 µM [1]: 0%; inhibition at 0.5 µM [1]: 52%; inhibition at 0.01 µM [2]: 0%; inhibition at 0.075 µM [2]: 1%; inhibition at 0.5 µM [2]: 62%; inhibition at 0.01 µM [3]: 0%; inhibition at 0.075 µM [3]: 57%; inhibition at 0.5 µM [3]: 90%; inhibition at 0.01 µM [4]: 0%; inhibition at 0.075 µM [4]: 0%; inhibition at 0.5 µM [4]: 0%; inhibition at 0.01 µM [5]: 11%; inhibition at 0.075 µM [5]: 38%; inhibition at 0.5 µM [5]: 59%; inhibition at 0.01 µM [6]: 1%; inhibition at 0.075 µM [6]: 0%; inhibition at 0.5 µM [6]: 3%
CCOC(=O)c1nn(-c2ccc3c(c2)OC(F)(F)C(F)(F)O3)c2cccc(C(C)=O)c2c1=O [Compound A, ethyl 5-acetyl-4-oxo-1-(2,2,3,3-tetrafluoro-1,4-benzodioxin-6-yl)cinnoline-3-carboxylate] | 1 | 23 | 21 | 0 | 64 | 0 | 14 | 17 | 42 | 58 | 4 | 85 |  |  |  |  |  |  |  |  | 
CCn1c(-c2ccc(Cl)c(Cl)c2)c(C(=O)O)c(=O)c2cc(F)ccc21 [Compound M, 2-(3,4-dichlorophenyl)-1-ethyl-6-fluoro-4-oxo-quinoline-3-carboxylic acid] | 0 | 0 | 74 | 45 | 58 | 4 | 0 | 81 | 22 | 77 | 0 | 37 | 0 | 62 | 0 | 0 | 27 | 93 | 0 | 84 | inhibition at 0.2 µM [3]: 25%; inhibition at 5 µM [3]: 90%; inhibition at 0.2 µM [4]: 0%; inhibition at 5 µM [4]: 45%; inhibition at 0.2 µM [9]: 0%; inhibition at 5 µM [9]: 22%; inhibition at 0.2 µM [10]: 21%; inhibition at 5 µM [10]: 96%; inhibition at 0.2 µM [5]: 4%; inhibition at 5 µM [5]: 44%; inhibition at 0.2 µM [11]: 57%; inhibition at 5 µM [11]: 94%; inhibition at 0.2 µM [6]: 0%; inhibition at 5 µM [6]: 6%; inhibition at 0.2 µM [12]: 27%; inhibition at 5 µM [12]: 84%
CCn1c(C)c(-c2ccc(F)cc2F)c(=O)c(C(=O)O)c1-c1ccc(Cl)c(Cl)c1 [Compound C, 2-(3,4-dichlorophenyl)-5-(2,4-difluorophenyl)-1-ethyl-6-methyl-4-oxo-pyridine-3-carboxylic acid] | 21 | 0 | 74 | 55 | 63 | 0 | 30 | 93 | 35 | 81 | 0 | 24 | 0 | 79 | 0 | 20 | 29 | 93 | 0 | 88 | inhibition at 0.2 µM [3]: 10%; inhibition at 5 µM [3]: 88%; inhibition at 0.2 µM [4]: 0%; inhibition at 5 µM [4]: 43%; inhibition at 0.2 µM [9]: 10%; inhibition at 5 µM [9]: 56%; inhibition at 0.2 µM [10]: 36%; inhibition at 5 µM [10]: 100%; inhibition at 0.2 µM [5]: 2%; inhibition at 5 µM [5]: 66%; inhibition at 0.2 µM [11]: 51%; inhibition at 5 µM [11]: 96%; inhibition at 0.2 µM [6]: 7%; inhibition at 5 µM [6]: 1%; inhibition at 0.2 µM [12]: 39%; inhibition at 5 µM [12]: 63%
